Experimental data from patent US5621000A, “Nitric esters having a pharmacological activity and process for their preparation” (priority 1992, dated 1997).
Like-named read-outs stand apart in the source and are kept apart here.

Key:
[1] = test system: plasma nitrate/nitrite levels; assay: NO release: plasma nitrate/nitrite levels; type: in vivo; settings: for increase of plasma nitrate/nitrite levels: one hour after the administration; for effect on plasma nitrate/nitrite levels: reference compounds
[2] = Rat gastric mucosa injury; settings: po
[3] = test system: prostaglandin E2 synthesis (gastric); assay: Gastric prostaglandin synthesis; type: in vivo; settings: for inhibition of gastric prostaglandin E2 synthesis: at the highest dose (5-20 mg/kg p.o.)
[4] = test system: prostaglandin E2 in exudate; assay: Prostaglandin synthesis in the inflammatory exudate (carrageenan sponge); type: in vivo; settings: for inhibition at 20 mg/kg: po, read-out: inhibition of the formation of prostaglandin E2 in exudate
Text: PROSTAGLANDIN SYNTHESIS IN THE INFLAMMATORY EXUDATE.
Subcutaneous implantation of carrageenan sponge elicits the infiltration of inflammatory cells, as reported in Nature 284, 271 (1980). […]

[5] = test system: carrageenan paw edema; assay: Carrageenan paw edema, anti-inflammatory activity; type: in vivo, Wistar rats; settings: for efficacy in rat carrageenan paw edema vs reference drugs: p.o., compared with Ketoprofen and Flurbiprofen; for ANTI-INFLAM. ACTIVITY (power ratio relative to the corresponding acid): carrageenan paw edema, Wistar rats, mean of 10 animals
Procedure: (§1) The anti-inflammatory and anti-platelet aggregation activity as well as the gastrointestinal ulcerogenicity, for instance of nitric esters having the following formulae, were tested by means of biological studies: [drawing 16]
The anti-inflammatory activity of said nitric esters was determined in Wistar rats utilizing the method of the carrageenan paw edema, as reported in C. A. WINTER, E. RISLEY, G. W. NUSS, Proc. Soc. Exp. Biol. Med. 111,544 (1962), while the anti-platelet aggregation activity of said derivatives was determined on human platelets stimulated by arachidonic acid, according to the method described by V. BERTELE et al., Science 220,517 (1983).
(§2) The anti-inflammatory and anti-platelet aggregation activity as well as the gastrointestinal ulcerability activity of said derivatives are given on Table 1, and are expressed, for each nitric ester indicated, as the power ratio relative to the corresponding acids non functionalized according to the general formula (I), according to this invention. Each value represents the mean of the values obtained by the treatment of 10 animals.

[6] = in vivo; type: in vivo; settings: in vivo, read-out: maximum tolerated dose: highest oral dose without apparent symptoms
[7] = test system: non rodents; assay: in vivo; type: in vivo; settings: for tolerability in non rodents: increasing oral doses up to 30 mg/kg, preliminary; for mortality in non rodents: 10 mg/kg, reference compounds
[8] = test system: leukocyte adherence to mesenteric post-capillary venules; assay: Gastric leukocyte adherence/vessel diameter (intravital microscopy); type: in vivo; settings: for blood pressure: one hour period after administration
Text: GASTRIC LEUKOCYTE ADHERENCE/VESSEL DIAMETER. […] J. Physiol.

[9] = test system: adjuvant arthritis; assay: Rat adjuvant arthritis; type: in vivo; settings: 3 mg/kg p.o., 19 consecutive days (days 3 through 21 after adjuvant injection), compared to controls
[10] = test system: phenylquinone writhing; assay: Mouse phenylquinone writhing; type: in vivo; settings: 3 to 10 mg/kg p.o.
[11] = test system: central nervous, autonomic, cardiovascular, respiratory and gastrointestinal systems; assay: General (secondary) pharmacology; type: in vivo; settings: in comparison with Ketoprofen or Flurbiprofen
[12] = test system: human platelets; assay: Anti-platelet aggregation activity on platelets stimulated by arachidonic acid; type: cell-based
Procedure: as §1
The anti-inflammatory activity of said nitric esters was determined in Wistar rats utilizing the method of the carrageenan paw edema, as reported in C. A. WINTER, E. RISLEY, G. W. NUSS, Proc. Soc.
as §2

[13] = test system: gastric mucosa; assay: Rat gastric mucosa injury
[14] = test system: mouse; assay: Preliminary acute toxicity in the mouse by two administration routes; type: in vivo; settings: oral or intraperitoneal doses of 300 mg/kg
[15] = test system: gastrointestinal ulcerogenicity; assay: Gastrointestinal ulcerability after oral administration; type: in vivo, rat
Procedure: as §1
The gastrointestinal ulcerability was evaluated by oral administration in the rat.
as §2

[16] = test system: collagen-induced platelet aggregation; assay: In vivo platelet aggregation, collagen-induced; settings: 20 mg/kg p.o. in the rat; for inhibition at 20 mg/kg: Platelet, po, versus controls
Text: IN VIVO PLATELET AGGREGATION.

[17] = test system: gastric mucosa; settings: rat, in vivo, po
[18] = prior to and during one hour after administration, intravital microscopy
[19] = oral administration in the rat, ratio to corresponding acid, mean of 10 animals

CC(C(=O)OCCCCO[N+](=O)[O-])c1ccc(-c2ccccc2)c(F)c1 (stereo not drawn) [(XII), nitric ester of 2-fluoro-alpha-methyl-4-diphenyl acetate of 4-hydroxybutyl]
increase of plasma nitrate/nitrite levels [1]: more than 50% | NOAEL ([2]; in vivo): ≥ 30 mg/kg | inhibition of gastric prostaglandin E2 synthesis [3]: more than 90% | inhibition at 20 mg/kg [4]: > 75% | efficacy in rat carrageenan paw edema vs reference drugs [5]: efficacy comparable with the corresponding reference drugs | MTD ([6]; oral, non rodents, increasing doses up to 30 mg/kg, preliminary): ≥ 30 mg/kg | tolerability in non rodents [7]: very well tolerated | blood pressure [8]: No changes in blood pressure were observed | diameter of vessels [8, 18]: increasing the diameter of vessels significantly | leukocyte adherence to post-capillary venules [8, 18]: did not induce significant leukocyte adherence | reduction in the arthritic symptomatology [9]: significant and comparative reduction in the arthritic symptomatology | efficacy in phenylquinone writhing [10]: fully effective | additional adverse reactions (secondary pharmacological evaluation) [11]: No relevant additional adverse reactions were observed

CC(C(=O)OCCCCO[N+](=O)[O-])c1cccc(C(=O)c2ccccc2)c1 (stereo not shown) [(XVIII), nitric ester of 2-(3-benzoilphenyl)propionate of 4-hydroxybutyl]
increase of plasma nitrate/nitrite levels [1]: more than 50% | ANTI-AGGREG. ACTIVITY (power ratio relative to the corresponding acid) [12]: 1,35 | NOAEL ([2]; gastric mucosa): ≥ 30 mg/kg | gastric tolerability relative to reference compounds ([13]; 3 to 30 mg/kg p.o.): significantly better tolerated than reference compounds | inhibition of gastric prostaglandin E2 synthesis relative to reference compounds ([3]; 5-20 mg/kg p.o., vs Ketoprofen and Flurbiprofen): inhibited significantly and comparatively to the corresponding reference compounds | inhibition of gastric prostaglandin E2 synthesis [3]: more than 90% | efficacy on exudate prostaglandin E2 relative to reference compounds ([4]; 20 mg/kg p.o., vs Ketoprofen and Flurbiprofen): comparative efficacy to the corresponding reference compounds | inhibition at 20 mg/kg ([4]; 20 mg/kg p.o., compared with controls): > 75% | acute toxicity [14]: No evident toxicity was observed | ANTI-INFLAM. ACTIVITY (power ratio relative to the corresponding acid) [5]: 1,25 | efficacy in rat carrageenan paw edema vs reference drugs [5]: efficacy comparable with the corresponding reference drugs | MTD ([6]; po): ≥ 30 mg/kg | tolerability in non rodents [7]: very well tolerated | GASTRO-INTESTINAL ULCERABILITY (power ratio relative to the corresponding acid) [15, 19]: 0,20 | blood pressure [8]: No changes in blood pressure were observed | diameter of vessels [8, 18]: increasing the diameter of vessels significantly | leukocyte adherence to post-capillary venules [8, 18]: did not induce significant leukocyte adherence | reduction in the arthritic symptomatology [9]: significant and comparative reduction in the arthritic symptomatology | inhibition of platelet aggregation, comparison with Flurbiprofen [16]: significantly more effective than the latter | inhibition at 20 mg/kg [16]: 66% | efficaciousness in phenylquinone writhing relative to reference compounds [10]: almost comparable with that of the corresponding reference compounds | efficacy in phenylquinone writhing [10]: fully effective | additional adverse reactions (secondary pharmacological evaluation) [11]: No relevant additional adverse reactions were observed

CC(C(=O)OCCCCO[N+](=O)[O-])c1ccc(C(=O)c2cccs2)cc1 (stereo not shown) [(XXIV)]
ANTI-AGGREG. ACTIVITY (power ratio relative to the corresponding acid) [12]: 1,30 | ANTI-INFLAM. ACTIVITY (power ratio relative to the corresponding acid) [5]: 1,20 | GASTRO-INTESTINAL ULCERABILITY (power ratio relative to the corresponding acid) [15, 19]: 0,35

CCC(C(=O)OCCCCO[N+](=O)[O-])c1ccc(N2Cc3ccccc3C2=O)cc1 (stereo not shown) [(XXV)]
ANTI-AGGREG. ACTIVITY (power ratio relative to the corresponding acid) [12]: 1,25 | ANTI-INFLAM. ACTIVITY (power ratio relative to the corresponding acid) [5]: 1,05 | GASTRO-INTESTINAL ULCERABILITY (power ratio relative to the corresponding acid) [15, 19]: 0,30

CCc1cccc2c3c([nH]c12)C(CC)(CC(=O)OCCCCO[N+](=O)[O-])OCC3 (stereo not shown) [(XXVI)]
ANTI-AGGREG. ACTIVITY (power ratio relative to the corresponding acid) [12]: 1,10 | ANTI-INFLAM. ACTIVITY (power ratio relative to the corresponding acid) [5]: 1,40 | GASTRO-INTESTINAL ULCERABILITY (power ratio relative to the corresponding acid) [15, 19]: 0,33

CC(C(=O)O)c1ccc(-c2ccccc2)c(F)c1 (stereo not shown) [Flurbiprofen, reference compound]
effect on plasma nitrate/nitrite levels [1]: did not affect plasma nitrate/nitrite levels significantly | mortality in non rodents [7]: caused the death of the animals | dose causing the onset of gastric damages [17]: ≤ 3 mg/kg | leukocyte adherence to post-capillary venules ([8]; in vivo): Unlike Ketoprofen or Flurbiprofen, (XVIII) or (XII) did not induce significant leukocyte adherence | inhibition at 20 mg/kg [16]: 40%

CCC(C(=O)O)c1ccc(N2Cc3ccccc3C2=O)cc1 (stereo not shown) [Indobufen, reference compound]
ANTI-AGGREG. ACTIVITY (power ratio relative to the corresponding acid) [12]: 1 | ANTI-INFLAM. ACTIVITY (power ratio relative to the corresponding acid) [5]: 1 | GASTRO-INTESTINAL ULCERABILITY (power ratio relative to the corresponding acid) [15, 19]: 1

CC(C(=O)O)c1cccc(C(=O)c2ccccc2)c1 (stereo not shown) [Ketoprofen, 2-(3-benzoylphenyl)propionic acid, reference compound]
effect on plasma nitrate/nitrite levels [1]: did not affect plasma nitrate/nitrite levels significantly | severity of gastric damages ([13]; 3 to 30 mg/kg p.o.): dose-dependent | dose causing the onset of gastric damages ([13]; p.o.): ≤ 3 mg/kg | mortality in non rodents [7]: caused the death of the animals | leukocyte adherence to post-capillary venules [8, 18]: Unlike Ketoprofen or Flurbiprofen, (XVIII) or (XII) did not induce significant leukocyte adherence

CC(C(=O)O)c1ccc(C(=O)c2cccs2)cc1 (stereo not shown) [Suprofen, reference compound]
ANTI-AGGREG. ACTIVITY (power ratio relative to the corresponding acid) [12]: 1 | ANTI-INFLAM. ACTIVITY (power ratio relative to the corresponding acid) [5]: 1 | GASTRO-INTESTINAL ULCERABILITY (power ratio relative to the corresponding acid) ([15]; rat, in vivo, po): 1
